In patent publication US20240415914A1, “Water Dispersible Cannabinoid Compositions” (priority 2021, published 2024):

Test: Stability of cannabinoid and Vitamin E components of Beverage 1 (AB White) stored at 8° C. and 21-25° C., LCMSMS over 570 days
Assay type: physicochemical
Settings: for Stability in AB White, 8° C. (content by LCMSMS): beverage stored at 8° C.; for Stability in AB White, 21-25° C. (content by LCMSMS): beverage stored at 21-25° C.
Method: The LCMSMS was calibrated for 0-1000 ng/ml cannabinoids with the same resin material used in the preparation of the concentrates. At each time period, 100 ml of beverage was diluted with 10 ml of methanol and injected into the LCMSMS for analysis.

## C=C(C)[C@@H]1CCC(C)=C[C@H]1c1c(O)cc(CCCCC)c(C(=O)O)c1O [CBDA, cannabidiolic acid]
Day 0
  Stability in AB White, 8° C. (content by LCMSMS): 1.75 µg/mL
  Stability in AB White, 21-25° C. (content by LCMSMS): 1.75 µg/mL
Day 1
  Stability in AB White, 8° C. (content by LCMSMS): 1.72 µg/mL
  Stability in AB White, 21-25° C. (content by LCMSMS): 1.76 µg/mL
Day 2
  Stability in AB White, 8° C. (content by LCMSMS): 1.76 µg/mL
  Stability in AB White, 21-25° C. (content by LCMSMS): 1.70 µg/mL
Day 3
  Stability in AB White, 8° C. (content by LCMSMS): 1.76 µg/mL
  Stability in AB White, 21-25° C. (content by LCMSMS): 1.71 µg/mL
Day 5
  Stability in AB White, 8° C. (content by LCMSMS): 1.71 µg/mL
  Stability in AB White, 21-25° C. (content by LCMSMS): 1.69 µg/mL
Day 8
  Stability in AB White, 8° C. (content by LCMSMS): 1.75 µg/mL
  Stability in AB White, 21-25° C. (content by LCMSMS): 1.77 µg/mL
Day 9
  Stability in AB White, 8° C. (content by LCMSMS): 1.73 µg/mL
  Stability in AB White, 21-25° C. (content by LCMSMS): 1.74 µg/mL
Day 10
  Stability in AB White, 8° C. (content by LCMSMS): 1.76 µg/mL
  Stability in AB White, 21-25° C. (content by LCMSMS): 1.73 µg/mL
Day 11
  Stability in AB White, 8° C. (content by LCMSMS): 1.70 µg/mL
  Stability in AB White, 21-25° C. (content by LCMSMS): 1.76 µg/mL
Day 12
  Stability in AB White, 8° C. (content by LCMSMS): 1.71 µg/mL
  Stability in AB White, 21-25° C. (content by LCMSMS): 1.74 µg/mL
Day 15
  Stability in AB White, 8° C. (content by LCMSMS): 1.74 µg/mL
  Stability in AB White, 21-25° C. (content by LCMSMS): 1.69 µg/mL
Day 16
  Stability in AB White, 8° C. (content by LCMSMS): 1.73 µg/mL
  Stability in AB White, 21-25° C. (content by LCMSMS): 1.75 µg/mL
Day 17
  Stability in AB White, 8° C. (content by LCMSMS): 1.73 µg/mL
  Stability in AB White, 21-25° C. (content by LCMSMS): 1.72 µg/mL
Day 18
  Stability in AB White, 8° C. (content by LCMSMS): 1.76 µg/mL
  Stability in AB White, 21-25° C. (content by LCMSMS): 1.75 µg/mL
Day 19
  Stability in AB White, 8° C. (content by LCMSMS): 1.74 µg/mL
  Stability in AB White, 21-25° C. (content by LCMSMS): 1.70 µg/mL
Day 22
  Stability in AB White, 8° C. (content by LCMSMS): 1.70 µg/mL
  Stability in AB White, 21-25° C. (content by LCMSMS): 1.70 µg/mL
Day 23
  Stability in AB White, 8° C. (content by LCMSMS): 1.76 µg/mL
  Stability in AB White, 21-25° C. (content by LCMSMS): 1.73 µg/mL
Day 24
  Stability in AB White, 8° C. (content by LCMSMS): 1.72 µg/mL
  Stability in AB White, 21-25° C. (content by LCMSMS): 1.70 µg/mL
Day 25
  Stability in AB White, 8° C. (content by LCMSMS): 1.75 µg/mL
  Stability in AB White, 21-25° C. (content by LCMSMS): 1.73 µg/mL
Day 26
  Stability in AB White, 8° C. (content by LCMSMS): 1.75 µg/mL
  Stability in AB White, 21-25° C. (content by LCMSMS): 1.75 µg/mL
Day 29
  Stability in AB White, 8° C. (content by LCMSMS): 1.75 µg/mL
  Stability in AB White, 21-25° C. (content by LCMSMS): 1.76 µg/mL
Day 30
  Stability in AB White, 8° C. (content by LCMSMS): 1.76 µg/mL
  Stability in AB White, 21-25° C. (content by LCMSMS): 1.71 µg/mL
Day 60
  Stability in AB White, 8° C. (content by LCMSMS): 1.70 µg/mL
  Stability in AB White, 21-25° C. (content by LCMSMS): 1.68 µg/mL
Day 90
  Stability in AB White, 8° C. (content by LCMSMS): 1.70 µg/mL
  Stability in AB White, 21-25° C. (content by LCMSMS): 1.67 µg/mL
Day 120
  Stability in AB White, 8° C. (content by LCMSMS): 1.67 µg/mL
  Stability in AB White, 21-25° C. (content by LCMSMS): 1.66 µg/mL
Day 150
  Stability in AB White, 8° C. (content by LCMSMS): 1.71 µg/mL
  Stability in AB White, 21-25° C. (content by LCMSMS): 1.64 µg/mL
Day 180
  Stability in AB White, 8° C. (content by LCMSMS): 1.75 µg/mL
  Stability in AB White, 21-25° C. (content by LCMSMS): 1.69 µg/mL
Day 210
  Stability in AB White, 8° C. (content by LCMSMS): 1.68 µg/mL
  Stability in AB White, 21-25° C. (content by LCMSMS): 1.73 µg/mL
Day 240
  Stability in AB White, 8° C. (content by LCMSMS): 1.70 µg/mL
  Stability in AB White, 21-25° C. (content by LCMSMS): 1.73 µg/mL
Day 270
  Stability in AB White, 8° C. (content by LCMSMS): 1.70 µg/mL
  Stability in AB White, 21-25° C. (content by LCMSMS): 1.71 µg/mL
Day 300
  Stability in AB White, 8° C. (content by LCMSMS): 1.69 µg/mL
  Stability in AB White, 21-25° C. (content by LCMSMS): 1.73 µg/mL
Day 330
  Stability in AB White, 8° C. (content by LCMSMS): 1.70 µg/mL
  Stability in AB White, 21-25° C. (content by LCMSMS): 1.72 µg/mL
Day 360
  Stability in AB White, 8° C. (content by LCMSMS): 1.70 µg/mL
  Stability in AB White, 21-25° C. (content by LCMSMS): 1.69 µg/mL
Day 390
  Stability in AB White, 8° C. (content by LCMSMS): 1.70 µg/mL
  Stability in AB White, 21-25° C. (content by LCMSMS): 1.67 µg/mL
Day 420
  Stability in AB White, 8° C. (content by LCMSMS): 1.67 µg/mL
  Stability in AB White, 21-25° C. (content by LCMSMS): 1.64 µg/mL
Day 450
  Stability in AB White, 8° C. (content by LCMSMS): 1.68 µg/mL
  Stability in AB White, 21-25° C. (content by LCMSMS): 1.70 µg/mL
Day 480
  Stability in AB White, 8° C. (content by LCMSMS): 1.66 µg/mL
  Stability in AB White, 21-25° C. (content by LCMSMS): 1.63 µg/mL
Day 510
  Stability in AB White, 8° C. (content by LCMSMS): 1.61 µg/mL
  Stability in AB White, 21-25° C. (content by LCMSMS): 1.66 µg/mL
Day 540
  Stability in AB White, 8° C. (content by LCMSMS): 1.61 µg/mL
  Stability in AB White, 21-25° C. (content by LCMSMS): 1.63 µg/mL
Day 570
  Stability in AB White, 8° C. (content by LCMSMS): 1.60 µg/mL
  Stability in AB White, 21-25° C. (content by LCMSMS): 1.61 µg/mL
